Reference: patent US4070473A, “Piperidino-butyrophenones” (AB Ferrosan, priority 1973, dated 1978)
Structures can show the parent of a compound that is named as a salt. Where two headings read alike, the source gives them in different places.

How the values were obtained:
[1] = Cataleptogenic effect in rats (measure of the extrapyramidal side effects) (Test 4); type: in vivo; settings: rat, in vivo, sc
Description: (§1) 4. Cataleptogenic effect in rats (measure of the extrapyramidal side effects).
(§2) 4. Stille, G. in Schweiz.

[2] = test system: aggressive behaviour in male mice; test: Inhibition of aggressive behaviour in male mice (Test 1); type: in vivo; settings: for ED50: Mus musculus, sc, read-out: Inhibition of agression, mice ED50
Description: Methylperon -- formula hereinbefore mentioned (R3 = H; R4 = CH3) chlorpromazine [drawing 23] in each of the following established standard tests: 1. Inhibition of aggressive behaviour in male mice.
1. Valzelli, L. in Aggressive Behaviour, Eds. Garattini and Sigg, p. 70 (1969)

[3] = test system: exploratory behaviour, mice; test: Inhibition of climbing in mice (inhibition of exploratory behaviour) (Test 2); type: in vivo; settings: Mus musculus, sc, read-out: Inhibition of exploratory behaviour, mice ED50
Description: 2. Inhibition of climbing in mice (inhibition of exploratory behaviour).
2. Sandberg, S. in Arzneimittelforschung, 9, 203 (1958)

[4] = test system: conditioned avoidance response, rats; test: Inhibition of conditioned behaviour (conditioned avoidance response) in rats (Test 5); type: in vivo; settings: Rattus norvegicus, sc, read-out: Inhibition of conditioned avoidance response, rats ED50
Description: 5. Inhibition of conditioned behaviour in rats. These tests were in accord with published test procedures and protocols, for instance: 5.

[5] = test system: Amphetamine antagonism, rats; test: Amphetamine antagonism in rats (antipsychotic effect) (Test 3); type: in vivo; settings: for ED50: Rattus norvegicus, sc, read-out: Amphetamine antagonism, rats ED50; for activity in Test 3 (amphetamine antagonism; antipsychotic/anxiolytic effect), in words: Table-Test No. 3
Description: 3. Amphetamine antagonism in rats (antipsychotic effect).
3. Randrup, A. et al. in Acta Pharmacol. (Kph), 20, 145 (1963)

[6] = Toxicity, subcutaneously on mice; settings: mouse, in vivo, sc
Description: The antipsychotic effect as shown in Test No. 3 is further confirmed by the blocking of apomorphine emesis in dogs. Ref: Janssen, P. A. J. et al. Arzneimittelforschung, 1, 1196 (1965) Furthermore, the compounds have a pronounced serotonine inhibiting effect, Ref: Alps, J. et al. Br. J. Pharmac. 44, 52 (1972) and a strong anti-inflammatory effect (measured with carrageenin-induced edema in rats). Ref: Takashima, T. et al. Arzneimittelforschung 22, 711 (1972) Their toxicity is rather low, 200 - 300 mg/kg. In comparison, the toxicity for haloperidol is 70 mg/kg and for methylperon is 280 mg/kg (all toxicities being performed subcutaneously on mice).

[7] = test system: Cataleptogenic effect, rats; test: Cataleptogenic effect in rats (measure of the extrapyramidal side effects) (Test 4); type: in vivo; settings: rats, Table-Test No. 4
Description: as §1, §2

[8] = rats, s.c., measure of the extrapyramidal side effects, read-out: Cataleptogenic effect, rats ED50

Structure (SMILES)	ED50 [1, 8]	ED50 ([2]; mice, s.c.)	ED50 ([3]; mice, s.c.)	ED50 ([4]; rats, s.c.)	ED50 ([5]; rats, s.c.)	ED50 [1]	activity in Test 1 (antiaggressive), in words ([2]; Table-Test No. 1)	LD50 [6]	activity in Test 3 (amphetamine antagonism; antipsychotic/anxiolytic effect), in words [5]	extrapyramidal / cataleptogenic effect, in words [7]	ED50 [2]	ED50 [3]	ED50 [4]	ED50 [5]
CCCOC1(C)CCN(CCCC(=O)c2ccc(F)cc2)CC1 [Example 3]	7 mg/kg	0.35 mg/kg	1 mg/kg	0.5 mg/kg	0.2 mg/kg	–	–	–	–	–	–	–	–	–
CCOC1(CC)CCN(CCCC(=O)c2ccc(F)cc2)CC1 [Example 6, gamma-(4-ethyl-4-ethoxypiperidino)-p-fluoro-4-butyrophenone hydrochloride]	5 mg/kg	0.08 mg/kg	1.4 mg/kg	1.5 mg/kg	0.1 mg/kg	–	–	–	–	–	–	–	–	–
CC1CCN(CCCC(=O)c2ccc(F)cc2)CC1 [Methylperon, reference compound]	–	2.2 mg/kg	2 mg/kg	6.8 mg/kg	3.5 mg/kg	12 mg/kg	not very active	280 mg/kg	not very active	–	–	–	–	–
CCCCOC1(C)CCN(CCCC(=O)c2ccc(F)cc2)CC1.Cl [Example 4, gamma-(4-methyl-4-butoxypiperidino)-p-fluorobutyrophenone hydrochloride]	20 mg/kg	0.35 mg/kg	2 mg/kg	2.5 mg/kg	0.75 mg/kg	–	–	–	–	–	–	–	–	–
O=C(CCCN1CCC(O)(c2ccc(Cl)cc2)CC1)c1ccc(F)cc1 [Haloperidol, reference compound]	0.27 mg/kg	–	–	–	–	–	–	70 mg/kg	–	pronounced cataleptogenic effect in rats	0.8 mg/kg	1.3 mg/kg	0.15 mg/kg	0.03 mg/kg
CCCC1(OC)CCN(CCCC(=O)c2ccc(F)cc2)CC1 [Example 8]	6.2 mg/kg	0.5 mg/kg	3.1 mg/kg	5.5 mg/kg	1 mg/kg	–	–	–	–	–	–	–	–	–
CCOC1(C)CCN(CCCC(=O)c2ccc(F)cc2)CC1 [Example 2]	6 mg/kg	0.7 mg/kg	1 mg/kg	1.3 mg/kg	0.1 mg/kg	–	–	–	–	–	–	–	–	–
CCC1(OC)CCN(CCCC(=O)c2ccc(F)cc2)CC1 [Example 5]	10 mg/kg	0.7 mg/kg	0.7 mg/kg	1.5 mg/kg	0.1 mg/kg	–	–	–	–	–	–	–	–	–
CCCCCC1(OCC)CCN(CCCC(=O)c2ccc(F)cc2)CC1 [Example 13]	6.8 mg/kg	0.5 mg/kg	1.3 mg/kg	–	0.35 mg/kg	–	–	–	–	–	–	–	–	–
CCCCC1(OCC)CCN(CCCC(=O)c2ccc(F)cc2)CC1 [Example 12]	3 mg/kg	0.35 mg/kg	1.6 mg/kg	5 mg/kg	0.07 mg/kg	–	–	–	–	–	–	–	–	–
COC1(C)CCN(CCCC(=O)c2ccc(F)cc2)CC1 [Example 1, gamma-(4-methyl-4-methoxy-piperidino)-p-fluorobutyrophenone]	10 mg/kg	0.2 mg/kg	0.65 mg/kg	0.6 mg/kg	0.35 mg/kg	–	–	–	–	–	–	–	–	–
CN(C)CCCN1c2ccccc2Sc2ccc(Cl)cc21 [Chlorpromazine, reference compound]	4.5 mg/kg	–	–	–	–	–	–	–	not very active	–	0.4 mg/kg	0.75 mg/kg	4.5 mg/kg	1.2 mg/kg
CCCOC1(CC)CCN(CCCC(=O)c2ccc(F)cc2)CC1 [Example 7]	6 mg/kg	0.7 mg/kg	1.2 mg/kg	–	0.35 mg/kg	–	–	–	–	–	–	–	–	–
COC1(C(C)C)CCN(CCCC(=O)c2ccc(F)cc2)CC1.Cl [Example 10, gamma-(4-isopropyl-4-methoxy-piperidino)-p-fluorobutyrophenone hydrochloride]	5 mg/kg	0.15 mg/kg	1.1 mg/kg	1.2 mg/kg	0.1 mg/kg	–	–	–	–	–	–	–	–	–
